ChEMBL document CHEMBL1201862, “PubChem BioAssay data set” (2004)
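Five concentrations, 48 hours, 96-well plates. GI50: concentration for 50% inhibition of growth.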 Activity calls are given as the source filed them. Rule as the data show it: active = GI50 up to about 1.1 µM and inactive = higher.

How the values were obtained:
Assay in all cases: inhibition of tumour cell growth, NCI panel, 48 h
EKVX = tested on: EKVX
TK-10 = tested on: TK-10
786-0 = tested on: 786-0
HCC 2998 = tested on: HCC 2998
SK-MEL-5 = tested on: SK-MEL-5
NCI-H460 = tested on: NCI-H460
A549 = tested on: A549
SK-OV-3 = tested on: SK-OV-3
MOLT-4 = tested on: MOLT-4
NCI-H23 = tested on: NCI-H23
SNB-75 = tested on: SNB-75
SF-268 = tested on: SF-268
SK-MEL-28 = tested on: SK-MEL-28
SK-MEL-2 = tested on: SK-MEL-2
NCI-H226 = tested on: NCI-H226
OVCAR-4 = tested on: OVCAR-4

Measured: GI50

O=C1CCC2(c3ccccc3)Nc3cc(Cl)ccc3N12 (stereo not drawn)
inactive: EKVX 33.3 µM | TK-10 39.2 µM | 786-0 35.6 µM | HCC 2998 42.1 µM | SK-MEL-5 16.9 µM | NCI-H460 32.7 µM | A549 31 µM | SK-OV-3 43.8 µM | MOLT-4 21.6 µM | NCI-H23 22.3 µM | SNB-75 16 µM | SF-268 40.8 µM | SK-MEL-28 36.2 µM | SK-MEL-2 22.2 µM | NCI-H226 19.2 µM | OVCAR-4 35.2 µM

O=C1C=C/C(=N\c2ccc3c(c2)C(Br)c2ccccc2-3)O1 (stereo not drawn)
inactive: EKVX 52 µM | TK-10 > 100 µM | 786-0 29 µM | HCC 2998 > 100 µM | NCI-H460 > 100 µM | A549 > 100 µM | SK-OV-3 > 100 µM | MOLT-4 26.8 µM | NCI-H23 > 100 µM | SNB-75 > 100 µM | SF-268 > 100 µM | SK-MEL-28 > 100 µM

CN(C)CC1CCCC(CN(C)C)C1OC(=O)c1ccccc1 (stereo not drawn)
inactive: EKVX > 100 µM | TK-10 > 100 µM | 786-0 > 100 µM | HCC 2998 > 100 µM | SK-MEL-5 > 100 µM | NCI-H460 > 100 µM | A549 > 100 µM | SK-OV-3 > 100 µM | MOLT-4 > 100 µM | NCI-H23 > 100 µM | SNB-75 > 100 µM | SF-268 > 100 µM | SK-MEL-28 > 100 µM | SK-MEL-2 > 100 µM | NCI-H226 > 100 µM | OVCAR-4 > 100 µM

COC(=O)N/N=c1\cc(C(=O)Nc2ccc(C)c(C)c2)oc2cc(O)ccc12
inactive: EKVX > 100 µM | TK-10 > 100 µM | 786-0 > 100 µM | HCC 2998 > 100 µM | SK-MEL-5 > 100 µM | NCI-H460 > 100 µM | A549 > 100 µM | SK-OV-3 > 100 µM | MOLT-4 > 100 µM | NCI-H23 > 100 µM | SNB-75 > 100 µM | SF-268 > 100 µM | SK-MEL-28 > 100 µM | SK-MEL-2 > 100 µM | NCI-H226 > 100 µM | OVCAR-4 > 100 µM

C/C(CC(=O)Nc1cccc(Cl)c1C)=N\N=C(N)N
inactive: EKVX > 100 µM | TK-10 > 100 µM | 786-0 > 100 µM | HCC 2998 > 100 µM | SK-MEL-5 > 100 µM | NCI-H460 > 100 µM | A549 > 100 µM | SK-OV-3 > 100 µM | MOLT-4 > 100 µM | NCI-H23 > 100 µM | SNB-75 > 100 µM | SF-268 > 100 µM | SK-MEL-28 > 100 µM | SK-MEL-2 > 100 µM | NCI-H226 > 100 µM | OVCAR-4 > 100 µM

CC12CC3CC(C)(C1)CC(N=[N+]=[N-])(C3)C2
inactive: EKVX > 100 µM | TK-10 > 100 µM | 786-0 > 100 µM | HCC 2998 > 100 µM | SK-MEL-5 > 100 µM | NCI-H460 > 100 µM | A549 > 100 µM | SK-OV-3 > 100 µM | MOLT-4 > 100 µM | NCI-H23 > 100 µM | SNB-75 > 100 µM | SF-268 > 100 µM | SK-MEL-28 > 100 µM | SK-MEL-2 > 100 µM | NCI-H226 > 100 µM | OVCAR-4 > 100 µM

C[N+](C)(C)CC1CCCC(C[N+](C)(C)C)C1O (stereo not drawn)
inactive: EKVX > 100 µM | TK-10 > 100 µM | 786-0 > 100 µM | HCC 2998 > 100 µM | SK-MEL-5 > 100 µM | NCI-H460 > 100 µM | A549 > 100 µM | SK-OV-3 > 100 µM | MOLT-4 > 100 µM | NCI-H23 > 100 µM | SNB-75 > 100 µM | SF-268 > 100 µM | SK-MEL-28 > 100 µM | SK-MEL-2 > 100 µM | NCI-H226 > 100 µM | OVCAR-4 > 100 µM

COc1cc2c(cc1OC)C1(c3ccc(Cl)cc3)ON=C(c3ccccc3)N1CS2 (stereo not drawn)
inactive: EKVX > 100 µM | TK-10 > 100 µM | 786-0 > 100 µM | HCC 2998 > 100 µM | SK-MEL-5 > 100 µM | NCI-H460 92 µM | A549 > 100 µM | SK-OV-3 > 100 µM | MOLT-4 11 µM | NCI-H23 > 100 µM | SNB-75 > 100 µM | SF-268 > 100 µM | SK-MEL-28 > 100 µM | SK-MEL-2 > 100 µM | NCI-H226 > 100 µM | OVCAR-4 > 100 µM

CC(C)(C)c1cc(CCCCCCCC2(CCCCCCCc3cc(C(C)(C)C)cc(C(C)(C)C)c3)OC(COCCOCCCCCC#N)C(COCCOCCCCCC#N)O2)cc(C(C)(C)C)c1 (stereo not drawn)
inactive: EKVX > 100 µM | TK-10 > 100 µM | 786-0 > 100 µM | HCC 2998 > 100 µM | SK-MEL-5 > 100 µM | NCI-H460 > 100 µM | A549 > 100 µM | SK-OV-3 > 100 µM | NCI-H23 > 100 µM | SNB-75 > 100 µM | SF-268 > 100 µM | SK-MEL-28 > 100 µM | SK-MEL-2 > 100 µM | NCI-H226 > 100 µM | OVCAR-4 > 100 µM

ON/N=C/c1cc2c(cc1Br)OCO2
inactive: EKVX 176 µM | TK-10 > 386 µM | 786-0 > 386 µM | HCC 2998 > 386 µM | SK-MEL-5 > 386 µM | NCI-H460 > 386 µM | A549 > 386 µM | SK-OV-3 > 386 µM | MOLT-4 383 µM | NCI-H23 > 386 µM | SF-268 247 µM | SK-MEL-28 > 386 µM | SK-MEL-2 > 386 µM | NCI-H226 > 386 µM

O=[N+]([O-])c1cc(/C=N\NS(=O)(=O)c2ccc(Cl)cc2)c(O)c([N+](=O)[O-])c1
inactive: EKVX > 100 µM | TK-10 > 100 µM | 786-0 36.1 µM | HCC 2998 85.7 µM | SK-MEL-5 27.8 µM | NCI-H460 21 µM | A549 37.8 µM | SK-OV-3 31.3 µM | MOLT-4 29.2 µM | NCI-H23 22.2 µM | SNB-75 24.9 µM | SF-268 38 µM | SK-MEL-28 93.3 µM | SK-MEL-2 31.1 µM | OVCAR-4 36.7 µM

O=C(N/C(=C\c1c(O)ccc2ccccc12)c1nc2ccccc2[nH]1)c1ccccc1
inactive: EKVX > 100 µM | TK-10 > 100 µM | 786-0 39.8 µM | HCC 2998 > 100 µM | SK-MEL-5 > 100 µM | NCI-H460 > 100 µM | A549 > 100 µM | SK-OV-3 86.3 µM | MOLT-4 > 100 µM | NCI-H23 87.1 µM | SNB-75 18.8 µM | SF-268 64.3 µM | SK-MEL-28 > 100 µM | SK-MEL-2 > 100 µM | OVCAR-4 > 100 µM

C#CC1(O)CCC2[C@@H]3CCc4cc(Oc5nc(F)nc(-c6c7ccccc7c(SCC)n6CCC)n5)ccc4C3CC[C@@]21C (stereo partly drawn)
inactive: EKVX 59.6 µM | TK-10 > 100 µM | 786-0 > 100 µM | HCC 2998 > 100 µM | SK-MEL-5 63.8 µM | NCI-H460 > 100 µM | A549 > 100 µM | SK-OV-3 > 100 µM | MOLT-4 28.7 µM | NCI-H23 25 µM | SF-268 57.5 µM | SK-MEL-28 50.7 µM | SK-MEL-2 19.9 µM | NCI-H226 20.6 µM | OVCAR-4 > 100 µM

COc1ccccc1/C=C1\C(=O)N(C(=O)c2ccc(NC(C)=O)cc2)N=C1C
inactive: EKVX > 100 µM | TK-10 > 100 µM | 786-0 > 100 µM | HCC 2998 > 100 µM | SK-MEL-5 > 100 µM | NCI-H460 > 100 µM | A549 > 100 µM | MOLT-4 > 100 µM | NCI-H23 > 100 µM | SNB-75 > 100 µM | SF-268 > 100 µM | SK-MEL-28 > 100 µM | SK-MEL-2 > 100 µM | NCI-H226 > 100 µM | OVCAR-4 > 100 µM

Cc1cc(Br)cc(C)c1NC(=O)C(=O)C(C(=O)c1ccc(Cl)c(Cl)c1)C1OC(=O)c2ccccc21 (stereo not drawn)
inactive: EKVX 4.19 µM | TK-10 70.8 µM | 786-0 86.1 µM | HCC 2998 > 100 µM | NCI-H460 > 100 µM | A549 74.3 µM | SK-OV-3 49.5 µM | MOLT-4 12.6 µM | NCI-H23 95.7 µM | SF-268 39.8 µM | SK-MEL-2 > 100 µM | NCI-H226 72.6 µM | OVCAR-4 > 100 µM

N#CC1(C#N)C=CC(=C2OCC3CCCN23)C=C1 (stereo not drawn)
inactive: TK-10 > 100 µM | 786-0 > 100 µM | HCC 2998 > 100 µM | SK-MEL-5 37.8 µM | NCI-H460 > 100 µM | A549 > 100 µM | SK-OV-3 > 100 µM | MOLT-4 > 100 µM | SNB-75 52.2 µM | SF-268 > 100 µM | SK-MEL-2 > 100 µM | NCI-H226 > 100 µM | OVCAR-4 > 100 µM

NCP(=O)(O)OCC(=O)O
inactive: EKVX > 100 µM | TK-10 > 100 µM | 786-0 > 100 µM | SK-MEL-5 > 100 µM | NCI-H460 > 100 µM | A549 > 100 µM | SK-OV-3 > 100 µM | MOLT-4 > 100 µM | NCI-H23 > 100 µM | SNB-75 > 100 µM | SF-268 > 100 µM | SK-MEL-28 > 100 µM | SK-MEL-2 > 100 µM | OVCAR-4 > 100 µM

C[C@@]1(CBr)C[C@@](C)(/C=C/Cl)[C@@H](Cl)C[C@H]1Cl
inactive: EKVX 18.1 µM | TK-10 14.7 µM | 786-0 14 µM | HCC 2998 16.1 µM | SK-MEL-5 13.3 µM | A549 12.3 µM | SK-OV-3 16 µM | MOLT-4 4.03 µM | NCI-H23 13.3 µM | SNB-75 16.1 µM | SF-268 15.9 µM | SK-MEL-28 17.5 µM | SK-MEL-2 2.74 µM | NCI-H226 12.8 µM | OVCAR-4 11.6 µM
